Results on one molecule are retold here after article PMC9090282, “Characterization of Calcium-Dependent Protein Kinase 2A, a Potential Drug Target Against Cryptosporidiosis” (Frontiers in Microbiology, 2022).

Data set [1] relates to Cryptosporidium parvum. Nature of the data set: Anti-cryptosporidial activity on C. parvum development in HCT-8 cultures by qRT-PCR (compound present during invasion and growth, 44 h). Type of data set: cell-based. Here is the method:
(§1) Using molecular docking of the simulated CpCDPK2A structure, small molecules were selected from the ChemDiv database. The binding energy values of ligands to proteins were calculated based on ligand efficiency, Coulomb energy, Van der waals energy, and H-bond energy. Candidate small molecules were purchased from TopScience Ltd. (Shanghai, China) and screened for activities against C. parvum development in vitro using qRT-PCR ([Zhang et al., 2012]). Briefly, HCT-8 monolayers (2 × 10^4 cells/well) grown in 96 well plates were inoculated with hypochlorite-treated oocysts (2 × 10^4 oocysts/well) containing dilutions of compounds (10 μM) or DMSO (1%). The parasites were allowed to invade host cells for 3 h, and uninvaded parasites were washed off with the medium change. […] The levels of 18S rRNA transcripts of C. parvum and HCT-8 cells were measured by using the HiScript II One Step qRT-PCR SYBR Green kit (Vazyme Biotech, Nanjing, China) as described ([Zhang et al., 2012]). The parasite loads in cultures were calculated using the ΔΔCT method ([Cai et al., 2005]). […] The cytotoxicity of compounds was evaluated by the Cell Titer 96 Aqueous One Solution Cell Proliferation Assay (Promega) as described ([Pobsuk et al., 2019]). The half-maximal toxic concentration (TC50) values on host cells were calculated using Graphpad Prism 7 (Graphpad software, San Diego, United States).

The test system of data set [2] is HCT-8 cells. Nature of the data set: Cytotoxicity, Cell Titer 96 Aqueous One Solution Cell Proliferation Assay. The data set is classed as cell-based, human. Here is the method: as §1
The subject of data set [3] is Cryptosporidium parvum. The data set can be described thus: Invasion experiment: HCT-8 cells infected with oocysts and cultured with compound for 3 h, qRT-PCR. The data set is classed as cell-based. The conditions noted are these: 0.01 to 20 μM, compound only during invasion phase (3 h). On the procedure:
(§2) Candidate anti-cryptosporidial compounds were further examined for their effects on C. parvum invasion or development assays. In invasion experiments, HCT-8 cells plated on coverslips were infected with bleached oocysts and cultured with active compounds for 3 h at 37°C. In growth experiments, monolayers were infected with bleached oocysts, washed twice with PBS at 3 h post-infection, and returned to culture in fresh HCT-8 medium with active compounds for 41 h. RNA was collected from each well at specified time point to assess the anti-cryptosporidial activities of these compounds using qRT-PCR method described above. The addition of 140 μM paromomycin was used as a positive control. Parasite enumeration by immunofluorescence microscopy was used to verify the efficacy of active compound K292-0423 against C. parvum development in vitro.

The test system of data set [4] is Cryptosporidium parvum. The data set can be described thus: Growth experiment: compound added at 3 h post-infection for 41 h, qRT-PCR. The data set is classed as cell-based. The conditions noted are these: read-out: EC50 on parasite loads, compound added after invasion. Here is the method: as §2
For data set [5], the target named is rCpCDPK2A (Cryptosporidium parvum, UniProt Q5CTY5). Nature of the data set: NADH-coupled ATPase assay of rCpCDPK2A enzyme activity. The data set is classed as biochemical. On the procedure: The enzymatic activity of rCpCDPK2A was measured using the […] NADH-coupled ATPase assay as described previously ([Rutaganira et al., 2017]). The kinase reaction was conducted at 30°C for 40 min in 100 mM HEPES, pH 8.0, 150 mM NaCl, 10 mM MgCl2, 1 mM CaCl2, 50 mM KCl, 10 mM DTT, 2 μg/ml BSA, and 0.01% Tween 20. The typical assay of 100 μl reactions contained 50 μM Syntide-2, 50 μM ATP, 150 μM NADH, 300 μM phosphoenolpyruvate (PEP), and a mixture of pyruvate kinase (4 units/ml) and lactate dehydrogenase (6 units/ml; Sigma). The reaction was initiated with the addition of 100 nM rCpCDPK2A. A recombinant insulinase-like protease of C. parvum, INS-16, was used as the negative control. To assess the inhibitory effect on enzymatic activities of rCpCDPK2A, six active compounds were added to the reaction at 10 μM in duplicate. Compounds with significant inhibition rates were selected to determine the half-maximal inhibition concentration (IC50) using final concentrations of 1 μM to 20 μM. The IC50 values were calculated using Graphpad Prism 7.

Data set [6] concerns Cryptosporidium parvum. Nature of the data set: Parasite enumeration by immunofluorescence microscopy in treated HCT-8 cultures. The data set is classed as cell-based. The conditions noted are these: 10 μM; positive control paromomycin 140 μM. Here is the method: as §2

rCpCDPK2A, sequence (Q5CTY5 entry or part of it): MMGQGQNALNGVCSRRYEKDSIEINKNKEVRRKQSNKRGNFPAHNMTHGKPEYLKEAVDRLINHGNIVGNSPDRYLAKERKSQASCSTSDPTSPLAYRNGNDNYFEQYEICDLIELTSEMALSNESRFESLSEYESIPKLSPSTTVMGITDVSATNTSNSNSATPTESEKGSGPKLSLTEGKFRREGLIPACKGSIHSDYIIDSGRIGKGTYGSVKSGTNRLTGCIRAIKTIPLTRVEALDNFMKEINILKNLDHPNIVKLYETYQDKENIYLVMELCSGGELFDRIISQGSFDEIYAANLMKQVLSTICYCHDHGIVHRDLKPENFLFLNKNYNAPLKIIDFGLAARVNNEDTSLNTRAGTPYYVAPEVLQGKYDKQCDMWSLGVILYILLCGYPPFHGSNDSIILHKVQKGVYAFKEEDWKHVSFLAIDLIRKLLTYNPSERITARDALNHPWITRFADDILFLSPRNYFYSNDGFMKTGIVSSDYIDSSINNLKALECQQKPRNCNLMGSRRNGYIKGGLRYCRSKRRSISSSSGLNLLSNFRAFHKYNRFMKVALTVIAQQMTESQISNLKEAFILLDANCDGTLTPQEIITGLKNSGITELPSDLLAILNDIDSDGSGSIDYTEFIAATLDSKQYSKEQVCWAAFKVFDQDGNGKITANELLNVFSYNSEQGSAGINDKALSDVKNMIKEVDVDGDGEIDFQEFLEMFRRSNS

Turning to `O=C(CSc1nc2ccsc2c(=O)n1-c1ccc(Cl)cc1)NCc1ccco1` [K292-0423], the inhibition at 10 µM is above 60% in data set [1] (10 μM, read-out: Inhibition of parasite growth in primary screening) and 73.1% in data set [5] (10 μM compound, read-out: Inhibition rate of rCpCDPK2A activity). Further, the EC50 was 1.13 µM in data set [1] (dilutions 10 nM to 20 μM, read-out: EC50 (half-maximal effective concentration) on C. parvum growth) and 3.16 µM in data set [4]. Further, in data set [2], the “TC50 (half-maximal toxic concentration)” value is above 75 µM. Also, in data set [3], the “Inhibition rates of invasion of HCT-8 cells by C. parvum” value is reported as −24.27 to 37.66%. Further, the IC50 in data set [5] (concentrations 1 μM to 20 μM, read-out: IC50 on CpCDPK2A enzyme) is 8.42 µM. The “Inhibitory effect by direct enumeration of parasites” value in data set [6] is “inhibitory effects similar to that by the positive control paromomycin”.
